Experimental data as given in patent publication US9877980B2, “Method and composition for treatment or prevention of type 2 diabetes and hyperlipidemia” (Chun-Ching Shih, priority 2016, dated 2018).
Marks after values point to notes of the source that are not given here.

Assays:
Type in all cases: in vivo
[1] = system: epididymal adipocyte of HFD mice; experiment: Histology of epididymal white adipose tissue (adipocyte hypertrophy); conditions: 4 weeks, three measurements
Description: (§1) The following experiment was performed and approved by the guidelines of the Institutional Animal Care and Use Committee of Central Taiwan University of Science and Technology. The 4-week old male C57BL/6J mice (total amount n=63) were purchased from the National Laboratory Animal Breeding and Research Center (Taipei, Taiwan). After acclimatization for one week, all of the mice were divided randomly into the control (CON) group and the high-fat diet (HFD) group. For the following 12 weeks, the CON group (n=9) was kept on a low-fat diet (Diet 12450B, Research Diets, Inc., New Brunswick, N.J., USA), while the HFD group (n=54) was exposed to a high-fat diet (Diet 12451, Research Diets, New Brunswick, N.J., USA). The low-fat diet was composed of protein 20%, carbohydrate 70% and fat 10%, whereas the high-fat diet was composed of protein 20%, carbohydrate 35%, and fat 45% (of total energy, % kcal). After HFD exposure for 8 weeks, the HFD group was further randomly subdivided into 6 groups (n=9 per group) to receive different treatments by oral gavage once daily for four weeks and on HFD. […] The HF+B1, HF+B2, and […] are collectively termed BB-treated HFD groups in the following examples. The CON mice were administered vehicle. After dosing for 4 weeks, the mice were given no food at night and sacrificed after 12 h of fasting on the next day. All of the individual tissues were collected and weighed, and portions were instantly frozen using liquid nitrogen and kept at −80° C. for subsequent target gene analysis. Blood samples (0.8 mL) were collected for analysis of blood parameters.
(§2) Small pieces of epididymal white adipose tissue and liver tissue were fixed with formalin (200 g/kg) neutral buffered solution and embedded in paraffin. Sections of 8 μm […] were cut and stained with hematoxylin and eosin. For microscopic examination, a microscope (Leica, DM2500) was used, and the images were taken using a Leica Digital Camera (DFC-425-C).
Adipocyte hypertrophy, the pathological enlargement of adipocytes, is often found in subjects with type 2 diabetes and hyperlipidemia. To verify the therapeutic effect of the compound of formula I on adipocyte hypertrophy, morphology of the EWAT for the CON group and the BB-treated HFD groups was examined. Micrographs of the EWAT sections for each group were analyzed to determine the mean area of an epididymal adipocyte using the software ImageJ.

[2] = system: C57BL/6J mice on high-fat diet (HFD); experiment: Hepatic lipids in HFD mice; conditions: 4 weeks
Description: as §1
For hepatic lipid extraction, a 0.375 g liver samples were homogenized with 1 mL distill water for 5 minutes. The dried pellet was finally resuspended in 0.5 mL ethanol and analyzed using a triglycerides kit as used for analyzing the serum lipids set forth above.

[3] = system: C57BL/6J mice on high-fat diet (HFD); experiment: Absolute tissue weight, body weight, weight gain and food intake in HFD mice; conditions: 4 weeks
Description: as §1
Body weight of each mouse was monitored and measured daily at the same time throughout the experimentation. The difference in body weight between two consecutive days is defined as body weight gain. The food pellets for mice were weighed and put into the food container. Unconsumed pellets of high-fat diet were discarded each day and fresh pellets of high-fat diet were provided to ensure food quality throughout the experimentation. The high-fat food pellets were stored at 4° C.

[4] = system: C57BL/6J mice on high-fat diet (HFD); experiment: Blood parameters (glucose, insulin, TG, FFA, TC, leptin, adiponectin) in HFD mice; conditions: 4 weeks
Description: as §1, with “For the following 12 weeks, the CON group (n=9) was kept on a low-fat diet (Diet 12450B, Research Diets, Inc., New Brunswick, N.J., USA), while the HFD group (n=54) was exposed to a high-fat diet (Diet 12451, Research Diets, New Brunswick, N.J., USA). The low-fat diet was composed of protein 20%, carbohydrate 70% and fat 10%, whereas the high-fat diet was composed of protein 20%, carbohydrate 35%, and fat 45% (of total energy, % kcal).” left out
A portion of the blood samples obtained from the retro-orbital sinus of fasted mice were immediately used to measure blood glucose levels using Sidekick glucose analyzer (YSI 1500, YSI Incorporated, Yellow Springs, USA) according to the glucose oxidase method. Heparin (30 units/mL, Sigma) was added into other portions of the blood samples. […] Concentrations of plasma triglycerides (TG), total cholesterol (TC), and free fatty acids (FFA) were determined using commercial assay kits according to the manufacturer's instructions (Triglycerides-E test, Cholesterol-E test, and FFA-C test, Wako Pure Chemical, Osaka, Japan). Plasma insulin, leptin, and adiponectin levels were assessed using commercial assay kits according to the manufacturer's instructions (mouse insulin ELISA kit, Mercodia, Uppsala, Sweden; mouse leptin ELISA kit, Morinaga, Yokohama, Japan; Mouse Adiponectin ELISA kit, Crystal Chem International, Downers Grove, Ill., USA).

hepatocytes of HFD mice = experiment: Histology of liver tissue (hepatocellular ballooning); conditions: 4 weeks, grade 0 absence, 1 a few cells
Description: as §1, §2
Based on previous report, the designation of histological hepatocellular ballooning findings include grade 0 for absence of degeneration, grade 1 for degeneration in a few cells, and […] for degeneration in many cells.

CN(CCOc1ccc(CC2SC(=O)NC2=O)cc1)c1ccccn1 (centres unmarked) [Rosi, rosiglitazone, reference compound]
mean area of an epididymal adipocyte ([1]; 10 mg/kg/day oral gavage): 5886.4 ± 58.7 μm^2
Liver lipids Total lipid ([2]; 10 mg/kg/day oral gavage): 70.1 ± 8.2^d mg/g
Liver lipids Triacylglycerol ([2]; 10 mg/kg/day oral gavage): 52.1 ± 7.7^d μmol/g
Absolute tissue weight BAT ([3]; 10 mg/kg/day oral gavage): 0.206 ± 0.012 g
Absolute tissue weight EWAT ([3]; 10 mg/kg/day oral gavage): 0.919 ± 0.097^d g
Absolute tissue weight Liver ([3]; 10 mg/kg/day oral gavage): 0.886 ± 0.031 g
Absolute tissue weight MWAT ([3]; 10 mg/kg/day oral gavage): 0.302 ± 0.029 g
Absolute tissue weight RWAT ([3]; 10 mg/kg/day oral gavage): 0.224 ± 0.032^f g
Absolute tissue weight Skeletal muscle ([3]; 10 mg/kg/day oral gavage): 0.960 ± 0.078 g
Absolute tissue weight Visceral fat ([3]; 10 mg/kg/day oral gavage): 1.143 ± 0.124^e g
Body weight ([3]; 10 mg/kg/day oral gavage): 28.61 ± 1.51 g
Food intake ([3]; 10 mg/kg/day oral gavage): 2.11 ± 0.06 g/day/mouse
Weight gain ([3]; 10 mg/kg/day oral gavage): 0.38 ± 0.32 g
Blood parameters Adiponectin ([4]; 10 mg/kg/day oral gavage): 3.058 ± 0.040^f μg/mL
Blood parameters FFA ([4]; 10 mg/kg/day oral gavage): 1.08 ± 0.11^e mEq/L
Blood parameters Leptin ([4]; 10 mg/kg/day oral gavage): 1.661 ± 0.013^f ng/mL
Blood parameters TC ([4]; 10 mg/kg/day oral gavage): 111.5 ± 2.3^f mg/dL
hepatocellular ballooning mean score (hepatocytes of HFD mice; 10 mg/kg/day oral gavage): 0.8±0.2

CC(C)OC(=O)C(C)(C)Oc1ccc(C(=O)c2ccc(Cl)cc2)cc1 [Feno, fenofibrate, reference compound]
mean area of an epididymal adipocyte ([1]; 250 mg/kg/day oral gavage): 6982.3±309.7 μm^2
Liver lipids Total lipid ([2]; 250 mg/kg/day oral gavage): 62.4 ± 3.9^f mg/g
Liver lipids Triacylglycerol ([2]; 250 mg/kg/day oral gavage): 43.8 ± 5.6^f μmol/g
Absolute tissue weight BAT ([3]; 250 mg/kg/day oral gavage): 0.139 ± 0.011 g
Absolute tissue weight EWAT ([3]; 250 mg/kg/day oral gavage): 0.763 ± 0.116^f g
Absolute tissue weight Liver ([3]; 250 mg/kg/day oral gavage): 1.669 ± 0.033^f g
Absolute tissue weight MWAT ([3]; 250 mg/kg/day oral gavage): 0.264 ± 0.056 g
Absolute tissue weight RWAT ([3]; 250 mg/kg/day oral gavage): 0.173 ± 0.032^f g
Absolute tissue weight Skeletal muscle ([3]; 250 mg/kg/day oral gavage): 0.990 ± 0.078 g
Absolute tissue weight Visceral fat ([3]; 250 mg/kg/day oral gavage): 0.936 ± 0.147^f g
Body weight ([3]; 250 mg/kg/day oral gavage): 26.92 ± 0.96 g
Weight gain ([3]; 250 mg/kg/day oral gavage): −0.58 ± 0.48^d g
Blood parameters Adiponectin ([4]; 250 mg/kg/day oral gavage): 3.101 ± 0.028^f μg/mL
Blood parameters FFA ([4]; 250 mg/kg/day oral gavage): 0.91 ± 0.08^f mEq/L
Blood parameters Leptin ([4]; 250 mg/kg/day oral gavage): 1.206 ± 0.015^f ng/mL
Blood parameters TC ([4]; 250 mg/kg/day oral gavage): 104.5 ± 5.5^f mg/dL
hepatocellular ballooning mean score (hepatocytes of HFD mice; 250 mg/kg/day oral gavage): 0.6±0.1
